According to US20060008858A1, “Osteoblast factor(s) that regulates human prostate cancer migration to and invasion of bone” (The Regents of the University of Michigan, priority 2004, published 2006):

System: LNCaP-C4-2B and VCaP human CaP cells
Assay: Chemotaxtic migration assay (cell culture inserts)
Assay type: cell-based
Conditions: osteoblast-secreted proteins evaluated in migration assays; FIG. 2
Procedure: Conditioned medium from human primary pre-osteoblast cells was prepared by plating 5×10^5 cells in 10 ml culture medium (10% FBS DMEM medium) to 100 mm tissue culture dishes. Following 24 hrs to allow for adherence, the medium was removed and the cells washed three times with 10 ml/dish PBS. Washed cells were then incubated 72 hrs in 10 ml/dish serum-free DMEM medium supplemented with 1% (v/v) ITS+(Becton Dickenson, Bedford. Mass.) Medium collected after 72 hrs was filtered through 0.2 μm filter and used directly in in vitro invasion and migration assays with human prostate cancer cells.
Chemotaxtic migration assays were performed as described with modifications (Jeffers et al., 1996). Briefly, cells were harvested with trypsin, washed once with serum-free medium, and resuspended in serum-free DMEM medium to a concentration of 5×10^4 viable cells/ml. 25,000 cells/0.5 ml were then added to 24-well cell culture inserts with a […] pore size (Becton Dickinson, Bedford, Mass.). The inserts were placed in wells containing 0.5 ml of serum-free DMEM, 72 hr serum-free conditioned medium from human primary osteoblasts and incubated for 48 hrs in 5% CO2-95% air at 37° C. […] The total number of invading cells/filter was quantified under 10× magnification. […]

Row | Substance | effect on CaP cell migration
1 | IL-6: osteoblast-secreted protein, interleukin 6 | stimulatory
2 | basic Fibroblast Growth Factor: osteoblast-secreted protein, basic fibroblast growth factor | stimulatory
